Activity calls are given as the source filed them. Rule as the data show it, for most assays here: actives have a measured Kd and inactives only a lower limit.
Assays:
[1] = target: Aurora kinase B (Homo sapiens, UniProt Q96GD4)
[2] = target: Cyclin-dependent kinase 6 (Homo sapiens, UniProt Q00534)
[3] = target: Tyrosine-protein kinase CSK (Homo sapiens, UniProt P41240)
[4] = target: Tyrosine-protein kinase Fer (Homo sapiens, UniProt P16591)
[5] = target: Tyrosine-protein kinase Fyn (Homo sapiens, UniProt P06241)
[6] = target: Guanine nucleotide-binding protein G(i) subunit alpha-2 (Homo sapiens, UniProt P04899)
Guanine nucleotide-binding protein G(i) subunit alpha-2, sequence (P04899 whole entry): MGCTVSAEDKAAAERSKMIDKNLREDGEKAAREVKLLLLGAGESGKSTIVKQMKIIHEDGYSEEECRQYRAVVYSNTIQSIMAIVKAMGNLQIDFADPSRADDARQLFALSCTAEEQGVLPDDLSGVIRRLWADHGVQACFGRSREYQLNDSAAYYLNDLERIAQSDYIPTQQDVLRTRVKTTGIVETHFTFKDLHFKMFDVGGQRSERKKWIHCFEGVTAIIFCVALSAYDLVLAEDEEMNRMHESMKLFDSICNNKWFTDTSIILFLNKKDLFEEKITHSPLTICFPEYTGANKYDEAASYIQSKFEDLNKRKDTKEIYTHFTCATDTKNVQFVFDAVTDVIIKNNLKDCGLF

[7] = target: T1, MAP kinase-activated protein kinase 5 (Homo sapiens, UniProt Q8IW41)
T1 sequence (Q8IW41 whole entry): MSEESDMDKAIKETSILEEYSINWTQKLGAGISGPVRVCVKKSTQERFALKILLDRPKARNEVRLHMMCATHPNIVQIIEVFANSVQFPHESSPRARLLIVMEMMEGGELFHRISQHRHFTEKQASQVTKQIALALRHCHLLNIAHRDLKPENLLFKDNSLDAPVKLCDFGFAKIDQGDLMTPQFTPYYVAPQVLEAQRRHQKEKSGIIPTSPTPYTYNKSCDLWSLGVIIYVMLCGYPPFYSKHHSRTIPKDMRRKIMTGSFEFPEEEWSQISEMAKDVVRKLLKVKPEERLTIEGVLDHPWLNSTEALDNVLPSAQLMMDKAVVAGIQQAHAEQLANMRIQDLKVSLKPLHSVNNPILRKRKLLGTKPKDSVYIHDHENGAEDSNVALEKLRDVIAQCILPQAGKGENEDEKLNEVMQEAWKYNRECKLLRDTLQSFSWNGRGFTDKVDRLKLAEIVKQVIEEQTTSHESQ

[8] = target: Maternal embryonic leucine zipper kinase (Homo sapiens, UniProt Q14680)
Maternal embryonic leucine zipper kinase, sequence (Q14680 whole entry): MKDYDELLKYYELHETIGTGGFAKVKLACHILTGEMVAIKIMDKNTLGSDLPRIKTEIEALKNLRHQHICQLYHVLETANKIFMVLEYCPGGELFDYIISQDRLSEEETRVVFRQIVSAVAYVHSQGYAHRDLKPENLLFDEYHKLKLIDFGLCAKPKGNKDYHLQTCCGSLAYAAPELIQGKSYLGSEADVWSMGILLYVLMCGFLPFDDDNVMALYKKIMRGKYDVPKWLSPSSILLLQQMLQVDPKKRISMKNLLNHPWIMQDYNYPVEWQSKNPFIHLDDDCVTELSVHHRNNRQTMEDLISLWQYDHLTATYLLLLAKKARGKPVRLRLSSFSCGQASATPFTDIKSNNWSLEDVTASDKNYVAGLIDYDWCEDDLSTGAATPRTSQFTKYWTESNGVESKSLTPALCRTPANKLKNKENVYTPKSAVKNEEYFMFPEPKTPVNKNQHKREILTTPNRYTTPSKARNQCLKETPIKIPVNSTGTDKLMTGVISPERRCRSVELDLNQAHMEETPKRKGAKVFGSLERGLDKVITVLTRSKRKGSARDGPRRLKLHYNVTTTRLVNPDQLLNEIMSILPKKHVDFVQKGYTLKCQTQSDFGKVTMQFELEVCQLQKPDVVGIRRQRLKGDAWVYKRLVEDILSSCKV

[9] = target: T2, Serine/threonine-protein kinase Nek2 (Homo sapiens, UniProt P51955)
T2 sequence (P51955 whole entry): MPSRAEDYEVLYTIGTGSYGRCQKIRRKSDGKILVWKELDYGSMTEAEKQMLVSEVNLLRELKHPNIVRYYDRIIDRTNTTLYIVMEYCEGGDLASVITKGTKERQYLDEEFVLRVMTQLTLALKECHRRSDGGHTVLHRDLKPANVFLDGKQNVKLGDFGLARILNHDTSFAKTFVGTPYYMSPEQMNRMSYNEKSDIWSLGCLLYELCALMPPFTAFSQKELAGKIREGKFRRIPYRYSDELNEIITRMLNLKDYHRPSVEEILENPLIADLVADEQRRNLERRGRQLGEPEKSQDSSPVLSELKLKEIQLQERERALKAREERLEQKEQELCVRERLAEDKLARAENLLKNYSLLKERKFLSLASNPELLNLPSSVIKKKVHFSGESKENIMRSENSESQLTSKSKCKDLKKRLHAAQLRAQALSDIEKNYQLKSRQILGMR

[10] = target: T3, Phosphatidylinositol 5-phosphate 4-kinase type-2 gamma (Homo sapiens, UniProt Q8TBX8)
T3 sequence (Q8TBX8 whole entry): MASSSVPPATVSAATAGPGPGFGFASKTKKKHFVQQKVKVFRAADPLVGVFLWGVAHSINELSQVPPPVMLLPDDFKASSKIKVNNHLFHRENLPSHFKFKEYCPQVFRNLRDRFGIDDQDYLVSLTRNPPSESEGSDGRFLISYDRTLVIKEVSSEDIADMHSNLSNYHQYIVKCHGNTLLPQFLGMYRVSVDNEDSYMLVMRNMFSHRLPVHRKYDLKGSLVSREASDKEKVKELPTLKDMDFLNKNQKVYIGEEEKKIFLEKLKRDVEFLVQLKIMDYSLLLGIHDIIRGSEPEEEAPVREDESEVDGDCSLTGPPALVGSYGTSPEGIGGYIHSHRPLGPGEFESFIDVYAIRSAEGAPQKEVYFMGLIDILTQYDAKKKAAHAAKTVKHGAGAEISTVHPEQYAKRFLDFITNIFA

[11] = target: T4, ADP/ATP translocase 2 (Homo sapiens, UniProt P05141)
T4 sequence (P05141 whole entry): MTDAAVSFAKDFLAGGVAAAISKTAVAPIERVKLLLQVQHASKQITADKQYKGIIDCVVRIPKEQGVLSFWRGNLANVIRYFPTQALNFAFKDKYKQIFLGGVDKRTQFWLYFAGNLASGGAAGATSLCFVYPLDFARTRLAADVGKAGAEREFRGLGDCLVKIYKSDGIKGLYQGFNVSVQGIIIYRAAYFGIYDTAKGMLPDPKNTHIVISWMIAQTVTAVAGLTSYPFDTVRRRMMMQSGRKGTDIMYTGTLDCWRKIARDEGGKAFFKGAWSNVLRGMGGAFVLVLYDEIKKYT

[12] = target: Serine/threonine-protein kinase 16 (Homo sapiens, UniProt O75716)
Serine/threonine-protein kinase 16, sequence (O75716 whole entry): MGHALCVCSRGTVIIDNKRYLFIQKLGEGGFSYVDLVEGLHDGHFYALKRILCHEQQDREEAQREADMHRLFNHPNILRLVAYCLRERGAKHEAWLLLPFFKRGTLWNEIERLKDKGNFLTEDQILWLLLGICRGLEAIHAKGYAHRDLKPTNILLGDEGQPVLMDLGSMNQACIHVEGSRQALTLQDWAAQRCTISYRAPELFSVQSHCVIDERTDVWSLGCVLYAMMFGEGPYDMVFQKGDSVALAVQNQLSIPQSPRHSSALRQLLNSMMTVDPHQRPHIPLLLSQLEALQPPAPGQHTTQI

[13] = target: Serine/threonine-protein kinase 26 (Homo sapiens, UniProt Q9P289)
Serine/threonine-protein kinase 26, sequence (Q9P289 whole entry): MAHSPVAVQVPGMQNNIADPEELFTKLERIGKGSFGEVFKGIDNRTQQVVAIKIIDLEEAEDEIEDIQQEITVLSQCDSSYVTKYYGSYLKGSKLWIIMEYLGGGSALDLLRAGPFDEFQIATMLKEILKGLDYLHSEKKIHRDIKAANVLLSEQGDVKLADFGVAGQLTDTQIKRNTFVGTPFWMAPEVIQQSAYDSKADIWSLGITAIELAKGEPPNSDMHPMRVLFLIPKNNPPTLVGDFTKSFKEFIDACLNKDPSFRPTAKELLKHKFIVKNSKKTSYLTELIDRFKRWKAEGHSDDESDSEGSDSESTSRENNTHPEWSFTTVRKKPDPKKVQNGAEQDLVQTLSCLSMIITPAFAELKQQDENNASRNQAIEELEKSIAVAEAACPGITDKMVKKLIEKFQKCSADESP

[14] = target: Mitogen-activated protein kinase kinase kinase 20 (Homo sapiens, UniProt Q9NYL2)
Mitogen-activated protein kinase kinase kinase 20, sequence (Q9NYL2 whole entry): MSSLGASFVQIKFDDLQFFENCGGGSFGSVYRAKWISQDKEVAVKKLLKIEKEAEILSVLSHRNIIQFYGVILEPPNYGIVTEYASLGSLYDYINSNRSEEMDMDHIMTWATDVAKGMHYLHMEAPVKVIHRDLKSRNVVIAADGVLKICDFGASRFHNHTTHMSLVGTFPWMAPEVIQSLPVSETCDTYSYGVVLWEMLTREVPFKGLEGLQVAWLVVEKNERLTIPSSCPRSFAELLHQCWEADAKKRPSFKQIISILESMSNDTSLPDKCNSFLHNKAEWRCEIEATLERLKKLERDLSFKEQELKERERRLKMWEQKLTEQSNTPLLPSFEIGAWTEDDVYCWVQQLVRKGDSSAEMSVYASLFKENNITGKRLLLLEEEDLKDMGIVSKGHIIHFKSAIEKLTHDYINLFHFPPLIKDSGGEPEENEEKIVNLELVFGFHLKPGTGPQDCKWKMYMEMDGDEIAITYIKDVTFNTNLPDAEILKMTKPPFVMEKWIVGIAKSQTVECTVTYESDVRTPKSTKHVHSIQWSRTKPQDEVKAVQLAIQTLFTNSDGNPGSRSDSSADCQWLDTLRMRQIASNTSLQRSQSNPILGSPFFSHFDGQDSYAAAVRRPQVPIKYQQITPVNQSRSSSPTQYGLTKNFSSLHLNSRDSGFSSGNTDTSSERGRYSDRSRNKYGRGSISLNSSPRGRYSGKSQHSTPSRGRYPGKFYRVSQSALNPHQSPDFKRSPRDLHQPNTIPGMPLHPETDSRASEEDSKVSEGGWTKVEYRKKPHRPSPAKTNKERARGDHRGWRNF
Also: in the data inactive means no Kd found up to 30 µM.

Tyrosine-protein kinase Fer, sequence (P16591 whole entry): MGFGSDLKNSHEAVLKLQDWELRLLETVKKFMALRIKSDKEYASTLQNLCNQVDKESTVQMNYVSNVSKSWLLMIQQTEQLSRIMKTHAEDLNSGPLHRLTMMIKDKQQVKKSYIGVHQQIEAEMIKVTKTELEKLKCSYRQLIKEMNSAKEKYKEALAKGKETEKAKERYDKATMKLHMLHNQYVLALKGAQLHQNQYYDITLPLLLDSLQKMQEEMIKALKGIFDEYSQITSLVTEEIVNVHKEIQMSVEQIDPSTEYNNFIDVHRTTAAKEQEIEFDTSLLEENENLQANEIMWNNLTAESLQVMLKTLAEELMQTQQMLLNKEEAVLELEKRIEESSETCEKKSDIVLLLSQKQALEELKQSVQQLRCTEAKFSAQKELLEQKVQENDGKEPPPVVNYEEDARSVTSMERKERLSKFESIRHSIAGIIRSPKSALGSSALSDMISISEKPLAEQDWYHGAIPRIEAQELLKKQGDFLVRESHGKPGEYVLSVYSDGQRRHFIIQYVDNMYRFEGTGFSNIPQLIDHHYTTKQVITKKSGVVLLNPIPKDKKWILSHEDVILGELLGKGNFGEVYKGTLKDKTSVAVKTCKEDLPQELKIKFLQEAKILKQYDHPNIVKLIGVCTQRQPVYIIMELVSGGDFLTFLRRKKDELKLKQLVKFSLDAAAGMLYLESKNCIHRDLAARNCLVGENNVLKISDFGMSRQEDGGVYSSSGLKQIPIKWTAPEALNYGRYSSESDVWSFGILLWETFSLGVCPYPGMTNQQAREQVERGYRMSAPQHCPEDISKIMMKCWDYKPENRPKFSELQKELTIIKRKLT
Aurora kinase B, sequence (Q96GD4 whole entry): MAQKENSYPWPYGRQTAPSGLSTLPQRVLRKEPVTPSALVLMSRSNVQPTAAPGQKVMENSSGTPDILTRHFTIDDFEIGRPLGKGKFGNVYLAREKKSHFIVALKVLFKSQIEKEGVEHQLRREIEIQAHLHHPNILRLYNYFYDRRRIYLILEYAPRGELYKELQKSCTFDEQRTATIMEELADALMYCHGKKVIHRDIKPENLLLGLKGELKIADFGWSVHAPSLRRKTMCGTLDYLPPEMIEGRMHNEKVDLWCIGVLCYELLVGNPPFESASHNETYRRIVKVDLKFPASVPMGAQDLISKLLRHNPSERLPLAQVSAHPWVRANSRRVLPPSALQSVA
Tyrosine-protein kinase CSK, sequence (P41240 whole entry): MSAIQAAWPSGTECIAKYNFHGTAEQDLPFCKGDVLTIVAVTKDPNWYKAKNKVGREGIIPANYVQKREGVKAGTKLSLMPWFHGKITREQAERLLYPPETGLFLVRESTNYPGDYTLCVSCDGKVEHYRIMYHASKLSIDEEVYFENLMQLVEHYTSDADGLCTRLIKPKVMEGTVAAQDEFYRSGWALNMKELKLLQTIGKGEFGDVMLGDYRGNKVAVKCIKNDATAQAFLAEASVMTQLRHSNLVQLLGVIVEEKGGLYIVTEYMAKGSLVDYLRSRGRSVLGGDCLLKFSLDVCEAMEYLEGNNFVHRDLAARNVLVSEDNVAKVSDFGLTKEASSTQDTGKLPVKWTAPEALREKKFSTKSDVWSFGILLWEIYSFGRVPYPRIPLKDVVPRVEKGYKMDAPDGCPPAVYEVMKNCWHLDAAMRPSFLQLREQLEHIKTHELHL
Cyclin-dependent kinase 6, sequence (Q00534 whole entry): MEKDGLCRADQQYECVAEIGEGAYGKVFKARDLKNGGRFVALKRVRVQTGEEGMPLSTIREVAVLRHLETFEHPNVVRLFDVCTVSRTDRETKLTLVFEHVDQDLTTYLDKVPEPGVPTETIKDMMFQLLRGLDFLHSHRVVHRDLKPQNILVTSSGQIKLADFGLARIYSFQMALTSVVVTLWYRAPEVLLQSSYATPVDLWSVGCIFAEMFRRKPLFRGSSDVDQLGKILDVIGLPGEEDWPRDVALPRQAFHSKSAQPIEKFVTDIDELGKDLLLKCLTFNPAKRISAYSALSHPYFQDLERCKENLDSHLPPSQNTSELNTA

Structure (SMILES)	Kd [1]	Kd [2]	Kd [3]	Kd [4]	Kd [5]	Kd [6]	Kd [7]	Kd [8]	Kd [9]	Kd [10]	Kd [11]	Kd [12]	Kd [13]	Kd [14]
Cn1cc(-c2cnc3ccc4ccc(CS(=O)(=O)NCc5ccccn5)cc4c(=O)c3c2)cn1 [MK-8033]	> 30 µM (inactive)	> 30 µM (inactive)	> 30 µM (inactive)	> 30 µM (inactive)	> 30 µM (inactive)	> 30 µM (inactive)	> 30 µM (inactive)	> 30 µM (inactive)	> 30 µM (inactive)	> 30 µM (inactive)	> 30 µM (inactive)	> 30 µM (inactive)	> 30 µM (inactive)	> 30 µM (inactive)
FC(F)(F)c1ccc(/C=C/c2nc(COc3ccc(CCCCn4ccnn4)cc3)co2)cc1 [MUBRITINIB]	> 30 µM (inactive)	> 30 µM (inactive)	> 30 µM (inactive)	> 30 µM (inactive)	> 30 µM (inactive)	> 30 µM (inactive)	> 30 µM (inactive)	> 30 µM (inactive)	> 30 µM (inactive)	> 30 µM (inactive)	> 30 µM (inactive)	> 30 µM (inactive)	> 30 µM (inactive)	> 30 µM (inactive)
Cc1nc(Nc2n[nH]c3c2CN(C(=O)N[C@H](CN(C)C)c2ccccc2)C3(C)C)c2sccc2n1 [PF-03758309]	2.08 µM (active)	> 30 µM (inactive)	> 30 µM (inactive)	0.802 µM (active)	1.23 µM (active)	> 30 µM (inactive)	> 30 µM (inactive)	0.057 µM (active)	> 30 µM (inactive)	> 30 µM (inactive)	> 30 µM (inactive)	5.45 µM (active)	0.017 µM	> 30 µM (inactive)
Cc1cnc(NC(=O)Nc2cc(Br)c(C)cc2OC[C@@H]2CNCCO2)cn1 [RABUSERTIB]	> 30 µM (inactive)	> 30 µM (inactive)	> 30 µM (inactive)	> 30 µM (inactive)	> 30 µM (inactive)	> 30 µM (inactive)	> 30 µM (inactive)	> 30 µM (inactive)	> 30 µM (inactive)	> 30 µM (inactive)	> 30 µM (inactive)	> 30 µM (inactive)	> 30 µM (inactive)	> 30 µM (inactive)
CO[C@H]1C[C@@H]2CC[C@@H](C)[C@@](O)(O2)C(=O)C(=O)N2CCCC[C@H]2C(=O)O[C@H]([C@H](C)C[C@@H]2CC[C@@H](OP(C)(C)=O)[C@H](OC)C2)CC(=O)[C@H](C)/C=C(\C)[C@@H](O)[C@@H](OC)C(=O)[C@H](C)C[C@H](C)/C=C/C=C/C=C/1C [RIDAFOROLIMUS]	> 30 µM (inactive)	> 30 µM (inactive)	> 30 µM (inactive)	> 30 µM (inactive)	> 30 µM (inactive)	> 30 µM (inactive)	> 30 µM (inactive)	> 30 µM (inactive)	> 30 µM (inactive)	> 30 µM (inactive)	> 30 µM (inactive)	> 30 µM (inactive)	> 30 µM (inactive)	> 30 µM (inactive)
